Reference: ChEMBL document CHEMBL1201862, “PubChem BioAssay data set” (2004)
Where a name gives a salt, the structure may show the parent alone. The source made the active and inactive calls.

Columns and labels:
[1] = target: G-protein coupled receptor 183 (Homo sapiens, UniProt P32249); assay: SAR confirmation of small molecule antagonists of the EBI2 receptor via a luminescent beta-arrestin assa.; type: functional
[2] = half-maximal inhibitory concentration for glucagon-like peptide-1 release, STC-1 cell line, dose-response (AID 1117345); type: functional, cell-based
[3] = Glucagon-like peptide 1 release potency, NCI-H716 cell line, dose-response, half-maximal inhibitory concentration (AID 1117344); type: functional, cell-based
cells = type: functional, cell-based; settings: INS-1E
[4] = Dose-response inhibition of insulin secretion in a rat insulinoma line at 5 mM glucose (AID 1117331); type: functional, cell-based; settings: INS-1E

G-protein coupled receptor 183, sequence (P32249 whole entry): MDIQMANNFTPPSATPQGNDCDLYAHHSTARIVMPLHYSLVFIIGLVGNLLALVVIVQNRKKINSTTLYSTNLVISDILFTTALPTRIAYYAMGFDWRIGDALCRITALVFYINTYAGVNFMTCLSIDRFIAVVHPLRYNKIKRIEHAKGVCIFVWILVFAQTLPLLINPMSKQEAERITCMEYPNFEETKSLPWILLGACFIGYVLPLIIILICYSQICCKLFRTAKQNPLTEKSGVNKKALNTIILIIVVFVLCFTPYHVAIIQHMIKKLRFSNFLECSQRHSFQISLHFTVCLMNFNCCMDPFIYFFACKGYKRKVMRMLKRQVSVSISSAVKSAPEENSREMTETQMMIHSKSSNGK

SMILES | IC50 [1] | IC50 (cells) | IC50 [4] | other results
O=C(/C=C/c1ccc(Br)cc1)N1CCN(Cc2cccc(F)c2)CC1 | 0.00261 µM (active) | – | – | –
O=C(/C=C/c1ccccc1)N1CCN(Cc2ccc(F)cc2)CC1 | 0.0216 µM (active) | – | – | –
CC(=O)NO [ACETOHYDROXAMIC ACID] | – | – | – | IC50 [2]: > 40 µM (inactive); IC50 [3]: > 40 µM (inactive)
CN1CCCN(C(c2ccccc2)c2ccc(Cl)cc2)CC1 (stereo not drawn) [HOMOCHLORCYCLIZINE] | – | > 33.3 µM (inactive) | > 3.7 µM (inactive) | –
CN(C)C/C=C(/c1ccc(Br)cc1)c1cccnc1 [ZIMELDINE HYDROCHLORIDE] | – | > 33.3 µM (inactive) | 8.36 µM (inactive) | –
